Where “and” joins values, the source holds several entries; their conditions need not be identical. Equal entries are not always repeated.
System: CD56+γδTCR+iTCR+ cells
Assay: AVM0703 R/R NHL clinical trial, whole blood flow cytometry
Assay type: in vivo, human
Procedure: FIG. 15. 101-001 size (FSC) and complexity (SSC) scattergram of AVM_NKT cells. […] Blood was stained with panel antibodies based for 15 minutes in the dark at Room Temperature. RBC lysis was performed by addition of 1 mL of 1×BD FACS Lysing Solution (BD Bioscience), diluted with MilliQ water, for 10 minutes in the dark at Room Temperature. Samples were washed with 2 mL 1×DPBS CMF (Gibco) and resuspended in 300 μL of 1×DPBS CMF before 5 μL of 7AAD (Biolegend) was added to each sample for live/dead cell determination and incubated for 5 minutes in the dark at Room Temperature. 250 μL of sample were taken up for acquisition on Macsquant 16 Flow Cytometer (Miltenyi, Serial #40150). Live white blood cells were gated for CD56+ cells co-expressing gamma delta TCR and the invariant TCR and labelled red in the forward versus side scattergram. Red-labelled cells fall within the forward versus side scattergrams where large granular cells such as neutrophils and large granular lymphocytes are known to fall.
For characterisation of the induced/mobilized population of NKT-like cells (AVM-NKT) in humans, whole blood from human subjects was drawn in K2 EDTA Vacutainer tube (367862, BD Biosciences, NJ) and shipped to AVM Biotechnology at room temperature. 100 μl of whole blood was stained with the following antibodies: CD45 AF700 (2D1), CD16 APC (3G8), INKT PECy7 (6B11), CD8 PE (SK1), CD14 FITC (M5E2), CD56 BV650 (5.1H11), γδTCR BV510 (B1), CD19 BV421 (HIB19), NKp44 APC (P44-8) (all from Biolegend, San Diego, CA) and CD3 APCVio770 (BW264/56), (Miltenyi Biotec, San Jose, CA), 7-AAD, (Biolegend, San Diego CA) was included to distinguish the live and dead cells.

[1] = patient 108-001, 1st 9 mg/kg infusion, 1 hour
[2] = patient 108-001, 1st 9 mg/kg infusion, Day 3
[3] = patient 108-001, 1st 9 mg/kg infusion, Day 14
[4] = patient 108-001, 2nd 9 mg/kg infusion, 1 hour
[5] = patient 108-001, 2nd 9 mg/kg infusion, Day 3
[6] = patient 108-001, 2nd 9 mg/kg infusion, Day 14
[7] = patient 108-002, 18 mg/kg, 1 hour post-infusion
[8] = patient 108-002, 18 mg/kg, Day 3
[9] = patient 108-002, 18 mg/kg, Day 14
[10] = patient 108-003, 12 mg/kg, 1 hour post-infusion
[11] = patient 108-003, 12 mg/kg, Day 3
[12] = patient 108-003, 12 mg/kg, Day 14

In the case of C[C@@H]1C[C@H]2[C@@H]3CCC4=CC(=O)C=C[C@]4(C)[C@@]3(F)[C@@H](O)C[C@]2(C)[C@@]1(O)C(=O)COP(=O)(O)O [AVM0703, dexamethasone sodium phosphate], the “CD45 (as % of CD56+ γδTCR+ iTCR+ cells)” value [1] is reported as 96%, the “CD56+ γδTCR+ iTCR+ % of total WBCs” value [1] is reported as 0.72% and the “CD56+ γδTCR+ iTCR+ cells/uL” value [1] is reported as 112 cells/uL. For the same compound, the “CD3 (as % of CD56+ γδTCR+ iTCR+ cells)” value [2] was 24%, the “CD8hi (as % of CD56+ γδTCR+ iTCR+ cells)” value [2] was 2% and the “CD8med (as % of CD56+ γδTCR+ iTCR+ cells)” value [2] was 16%. The “CD14+ (as % of CD56+ γδTCR+ iTCR+ cells)” value [2] was 50%, the “CD16 (as % of CD56+ γδTCR+ iTCR+ cells)” value [2] was 80% and the “CD19+ (as % of CD56+ γδTCR+ iTCR+ cells)” value [2] was 24%. For the same compound, the “CD45 (as % of CD56+ γδTCR+ iTCR+ cells)” value [2] was 98%, the “CD56+ γδTCR+ iTCR+ % of total WBCs” value [2] was 0.22% and the “CD56+ γδTCR+ iTCR+ cells/uL” value [2] was 36 cells/uL and 36.0 cells/uL. For the same compound, the “CD56+ γδTCR+ iTCR+ % of total WBCs” value [3] was 0.06%, the “CD56+ γδTCR+ iTCR+ cells/uL” value [3] was 3 cells/uL and the “CD3 (as % of CD56+ γδTCR+ iTCR+ cells)” value [4] was 23%. For the same compound, the “CD8hi (as % of CD56+ γδTCR+ iTCR+ cells)” value [4] was 2.2%, the “CD8med (as % of CD56+ γδTCR+ iTCR+ cells)” value [4] was 4.4% and the “CD14+ (as % of CD56+ γδTCR+ iTCR+ cells)” value [4] was 81%. The “CD16 (as % of CD56+ γδTCR+ iTCR+ cells)” value [4] was 89%, the “CD19+ (as % of CD56+ γδTCR+ iTCR+ cells)” value [4] was 26% and the “CD45 (as % of CD56+ γδTCR+ iTCR+ cells)” value [4] was 13%. The “CD56+ γδTCR+ iTCR+ % of total WBCs” value [4] was 0.84%, the “CD56+ γδTCR+ iTCR+ cells/uL” value [4] was 26 cells/uL and the “CD3 (as % of CD56+ γδTCR+ iTCR+ cells)” value [5] was 49%. The “CD8hi (as % of CD56+ γδTCR+ iTCR+ cells)” value [5] was 1%, the “CD8med (as % of CD56+ γδTCR+ iTCR+ cells)” value [5] was 55% and the “CD14+ (as % of CD56+ γδTCR+ iTCR+ cells)” value [5] was 35%. For the same compound, the “CD16 (as % of CD56+ γδTCR+ iTCR+ cells)” value [5] was 58%, the “CD19+ (as % of CD56+ γδTCR+ iTCR+ cells)” value [5] was 17% and the “CD45 (as % of CD56+ γδTCR+ iTCR+ cells)” value [5] was 11%. The “CD56+ γδTCR+ iTCR+ % of total WBCs” value [5] was 0.19%, the “CD56+ γδTCR+ iTCR+ cells/uL” value [5] was 10.2 cells/uL and the “CD3 (as % of CD56+ γδTCR+ iTCR+ cells)” value [6] was 22%. The “CD8hi (as % of CD56+ γδTCR+ iTCR+ cells)” value [6] was 4%, the “CD8med (as % of CD56+ γδTCR+ iTCR+ cells)” value [6] was 20% and the “CD14+ (as % of CD56+ γδTCR+ iTCR+ cells)” value [6] was 76%. The “CD16 (as % of CD56+ γδTCR+ iTCR+ cells)” value [6] was 82%, the “CD19+ (as % of CD56+ γδTCR+ iTCR+ cells)” value [6] was 28% and the “CD45 (as % of CD56+ γδTCR+ iTCR+ cells)” value [6] was 84%. The “CD56+ γδTCR+ iTCR+ % of total WBCs” value [6] was 0.43%, the “CD56+ γδTCR+ iTCR+ cells/uL” value [6] was 20 cells/uL and the “AVM_NKT CD56+γδTCR+iTCR+ cells in the blood” value (patient 108-001, after the third 9 mg/kg infusion) was “not evident in the blood”. For the same compound, the “CD56+gdTCR+ inv TCR+ cells induced” value (patient 108-002, 18 mg/kg) was “YES”, the “CD3 (as % of CD56+ γδTCR+ iTCR+ cells)” value [7] was 83.2% and the “CD8hi (as % of CD56+ γδTCR+ iTCR+ cells)” value [7] was 88%. The “CD8med (as % of CD56+ γδTCR+ iTCR+ cells)” value [7] was 12.3%, the “CD14+ (as % of CD56+ γδTCR+ iTCR+ cells)” value [7] was 79% and the “CD16 (as % of CD56+ γδTCR+ iTCR+ cells)” value [7] was 87%. For the same compound, the “CD19+ (as % of CD56+ γδTCR+ iTCR+ cells)” value [7] was 98%, the “CD45 (as % of CD56+ γδTCR+ iTCR+ cells)” value [7] was 100% and the “CD56+ γδTCR+ iTCR+ cells/uL” value [7] was 49.5 cells/uL. The “CD56+ γδTCR+ iTCR+ % of total WBCs” value [8] was 0.04%, the “CD56+ γδTCR+ iTCR+ cells/uL” value [8] was 2.3 cells/uL and the “CD3 (as % of CD56+ γδTCR+ iTCR+ cells)” value [9] was 72%. The “CD8hi (as % of CD56+ γδTCR+ iTCR+ cells)” value [9] was 73%, the “CD8med (as % of CD56+ γδTCR+ iTCR+ cells)” value [9] was 16.5% and the “CD14+ (as % of CD56+ γδTCR+ iTCR+ cells)” value [9] was 80%. The “CD16 (as % of CD56+ γδTCR+ iTCR+ cells)” value [9] was 41.2%, the “CD19+ (as % of CD56+ γδTCR+ iTCR+ cells)” value [9] was 80% and the “CD45 (as % of CD56+ γδTCR+ iTCR+ cells)” value [9] was 84%. For the same compound, the “CD56+ γδTCR+ iTCR+ % of total WBCs” value [9] was 0.25%, the “CD56+ γδTCR+ iTCR+ cells/uL” value [9] was 9.7 cells/uL and the “CD56+gdTCR+ inv TCR+ cells induced” value (patient 108-003, 12 mg/kg) was “YES”. For the same compound, the “CD3 (as % of CD56+ γδTCR+ iTCR+ cells)” value [10] was 14%, the “CD8hi (as % of CD56+ γδTCR+ iTCR+ cells)” value [10] was 1.7% and the “CD8med (as % of CD56+ γδTCR+ iTCR+ cells)” value [10] was 9%. For the same compound, the “CD14+ (as % of CD56+ γδTCR+ iTCR+ cells)” value [10] was 43%, the “CD16 (as % of CD56+ γδTCR+ iTCR+ cells)” value [10] was 85% and the “CD19+ (as % of CD56+ γδTCR+ iTCR+ cells)” value [10] was 40%. For the same compound, the “CD45 (as % of CD56+ γδTCR+ iTCR+ cells)” value [10] was 95%, the “CD56+ γδTCR+ iTCR+ % of total WBCs” value [10] was 0.4% and the “CD56+ γδTCR+ iTCR+ cells/uL” value [10] was 31.8 cells/uL. For the same compound, the “CD3 (as % of CD56+ γδTCR+ iTCR+ cells)” value [11] was 80%, the “CD8hi (as % of CD56+ γδTCR+ iTCR+ cells)” value [11] was 12.6% and the “CD8med (as % of CD56+ γδTCR+ iTCR+ cells)” value [11] was 45%. For the same compound, the “CD14+ (as % of CD56+ γδTCR+ iTCR+ cells)” value [11] was 68%, the “CD16 (as % of CD56+ γδTCR+ iTCR+ cells)” value [11] was 75% and the “CD19+ (as % of CD56+ γδTCR+ iTCR+ cells)” value [11] was 11.5%. For the same compound, the “CD45 (as % of CD56+ γδTCR+ iTCR+ cells)” value [11] was 67%, the “CD56+ γδTCR+ iTCR+ % of total WBCs” value [11] was 0.6% and the “CD56+ γδTCR+ iTCR+ cells/uL” value [11] was 58.4 cells/uL. The “CD3 (as % of CD56+ γδTCR+ iTCR+ cells)” value [12] was 90%, the “CD8hi (as % of CD56+ γδTCR+ iTCR+ cells)” value [12] was 8% and the “CD8med (as % of CD56+ γδTCR+ iTCR+ cells)” value [12] was 84%. For the same compound, the “CD14+ (as % of CD56+ γδTCR+ iTCR+ cells)” value [12] was 87%, the “CD16 (as % of CD56+ γδTCR+ iTCR+ cells)” value [12] was 89% and the “CD19+ (as % of CD56+ γδTCR+ iTCR+ cells)” value [12] was 12.4%. The “CD45 (as % of CD56+ γδTCR+ iTCR+ cells)” value [12] was 94%, the “CD56+ γδTCR+ iTCR+ % of total WBCs” value [12] was 0.83% and the “CD56+ γδTCR+ iTCR+ cells/uL” value [12] was 94 cells/uL. The “CD56+γδTCR+invTCR+ cells in blood” value (patient 108-004, 12 mg/kg, one hour, 3 days or 14 days after infusion (pre-infusion 0.09%, 4.6 cells/uL)) was “no increase”.

From patent US20240358829A1, “Lymphocyte Population and Methods for Producing Same” (AVM Biotechnology, LLC, priority 2021, published 2024)
